Test results: patent publication EP0109362A1, “Hetereocyclic compounds, process for their preparation, pharmaceutical compositions containing them and their use” (CIBA-GEIGY AG, priority 1982, dated 1984)
≈ marks a conversion by molar mass, not a printed value. Where two headings read alike, the source gives them in different places.

Tests used:
[1] = test system: Serratia marcescens 344; test: in vitro antibacterial test (MIC); assay type: cell-based
[2] = test system: Pseudomonas aeruginosa K 799/61; test: in vitro antibacterial test (MIC); assay type: cell-based; details: K799/61
[3] = test system: Proteus morganii 1518; test: in vitro antibacterial test (MIC); assay type: cell-based; details: Morganella morganii
[4] = test system: Proteus mirabilis 1219; test: in vitro antibacterial test (MIC); assay type: cell-based
[5] = test system: Proteus morganii 2359; test: in vitro antibacterial test (MIC); assay type: cell-based; details: Morganella morganii
[6] = test system: Proteus mirabilis 774; test: in vitro antibacterial test (MIC); assay type: cell-based
[7] = test system: Neisseria meningitidis 1316; test: in vitro antibacterial test (MIC); assay type: cell-based
[8] = test system: Escherichia coli DC 2; test: in vitro antibacterial test (MIC); assay type: cell-based; details: DC2; Escherichia coli DC 2, in vitro
Description: (§1) Die Verbindungen der Formel I weisen wertvolle pharmakologische Eigenschaften auf, oder können als Zwischenprodukte zur Herstellung von solchen Verbindungen mit wertvollen pharmakologischen Eigenschaften verwendet werden. Verbindungen der Formel I, worin R1 Wasserstoff oder Methyl ist, Rz Hydroxybedeutet, R3 Carboxyl oder eine unter physiologischen Bedingungen spaltbare veresterte Carboxylgruppe bedeutet und R4 die unter Formel I angegebene Bedeutung hat, und pharmakologisch verwendbare Salze von solchen Verbindungen mit salzbildenden Gruppen haben antibakterielle Wirkungen. Beispielsweise sind sie in vitro gegen grampositive und gramnegative Kokken, z.B. Staphylococcus aureus, Streptococcus pyogenes, Streptococcus pneumoniae, Streptococcus faecalis, Neisseria meningitidis und Neisseria gonorrhoeae, und gegen gramnegative Stäbchenbakterien, wie Enterobacteriaceae, Haemophilus influenzae und Pseudomonas aeruginosa, und Anaerobier, z.B. Bacteroides sp., in minimalen Konzentrationen von ca. 0,01 bis ca. 64 µg/ml wirksam. In vivo, bei der systemischen Infektion der Maus, z.B. durch Staphylococcus aureus oder Streptococcus pyogenes, ergeben sich bei subkutaner oder oraler Applikation ED50 -Werte von ca. 0,3 bis ca. 30 mg/kg. Beispielsweise weisen Natrium-(5R,6S)-2-[3-(2-methyl-tetrazol-5-yl)-propyl]-6-hydroxymethyl-2-penem 3-carboxylat (Verbindung A) und (5R,65)-2-[3-(2-Methyl-1,3,4-oxadiazo1-5-yl)-propyl]-6-hydroxymethyl-2-penem-3-carbonsäure (Verbindung B) in dem genannten in-vitro-Test die folgenden Werte auf: […]

[9] = test system: Escherichia coli UB 1005; test: in vitro antibacterial test (MIC); assay type: cell-based; details: UB1005; Escherichia coli UB 1005, in vitro
Description: as §1

[10] = test system: Haemophilus influenzae NCTC 4560; test: in vitro antibacterial test (MIC); assay type: cell-based; details: NCTC4560
[11] = test system: Escherichia coli 16; test: in vitro antibacterial test (MIC); assay type: cell-based
[12] = test system: Escherichia coli 205 R+TEM; test: in vitro antibacterial test (MIC); assay type: cell-based
[13] = test system: Enterobacter cloacae P 99; test: in vitro antibacterial test (MIC); assay type: cell-based; details: P99
[14] = test system: Streptococcus pneumoniae III/84; test: in vitro antibacterial test (MIC); assay type: cell-based
[15] = test system: Bacteroides fragilis L 01; test: in vitro antibacterial test (MIC); assay type: cell-based; details: L01
[16] = test system: Staphylococcus aureus 10 B; test: in vitro antibacterial test (MIC); assay type: cell-based
[17] = test system: Proteus rettgeri 856; test: in vitro antibacterial test (MIC); assay type: cell-based; details: Providencia rettgeri
[18] = test system: Neisseria gonorrhoeae 1317-4; test: in vitro antibacterial test (MIC); assay type: cell-based; details: 13174
[19] = test system: Staphylococcus aureus 2999i+p+; test: in vitro antibacterial test (MIC); assay type: cell-based
[20] = test system: Streptococcus faecalis D 3; test: in vitro antibacterial test (MIC); assay type: cell-based; details: Enterococcus faecalis, D3
[21] = test system: Staphylococcus aureus lOB; test: systemic infection of the mouse (ED50); assay type: in vivo, Maus; details: sc
Description: as §1, with “mg/kg.” for “mg/kg. Beispielsweise weisen Natrium-(5R,6S)-2-[3-(2-methyl-tetrazol-5-yl)-propyl]-6-hydroxymethyl-2-penem 3-carboxylat (Verbindung A) und (5R,65)-2-[3-(2-Methyl-1,3,4-oxadiazo1-5-yl)-propyl]-6-hydroxymethyl-2-penem-3-carbonsäure (Verbindung B) in dem genannten in-vitro-Test die folgenden Werte auf:”

[22] = test system: Escherichia coli 205; test: in vitro antibacterial test (MIC); assay type: cell-based
[23] = test system: Clostridium perfringens 194; test: microbe, parasite or virus in culture; assay type: cell-based
[24] = test system: Streptococcus pyogenes Aronson; test: in vitro antibacterial test (MIC); assay type: cell-based
[25] = test system: Klebsiella pneumoniae 327; test: in vitro antibacterial test (MIC); assay type: cell-based
[26] = test system: Pseudomonas aeruginosa ATCC 12055; test: in vitro antibacterial test (MIC); assay type: cell-based; details: ATCC12055

Work on `Cn1nnc(CCCC2=C(C(=O)[O-])N3C(=O)[C@H](CO)[C@H]3S2)n1.[Na+]` [Verbindung A, Natrium-(5R,6S)-2-[3-(2-methyl-tetrazol-5-yl)-propyl]-6-hydroxymethyl-2-penem 3-carboxylat] yielded an MIC ([1]; Serratia marcescens, 344) of 64 µg/mL, an MIC [2] of 2 µg/mL and an MIC [3]; 1518 of 16 µg/mL. It also gave an MIC ([4]; Proteus mirabilis, 1219) of 8 µg/mL, an MIC [5]; 2359 of 2 µg/mL and an MIC ([6]; Proteus mirabilis, 774) of 4 µg/mL. The MIC ([7]; Neisseria meningitidis, 1316) was 0.01 µg/mL, the MIC [8] was 2 µg/mL and the MIC [9] was 8 µg/mL. It also gave an MIC ([10]; Haemophilus influenzae) of 2 µg/mL, an MIC ([11]; Escherichia coli, 16) of 32 µg/mL and an MIC [12] of 8 µg/mL. It also gave an MIC [13] of 32 µg/mL, an MIC ([14]; Streptococcus pneumoniae) of 0.05 µg/mL and an MIC ([15]; Bacteroides fragilis) of 0.5 µg/mL. For the same molecule, the MIC ([16]; Staphylococcus aureus, 10B) was 0.2 µg/mL, the MIC [17]; 856 was 16 µg/mL and the MIC ([18]; Neisseria gonorrhoeae) was 0.01 µg/mL. It also gave an MIC ([19]; Staphylococcus aureus) of 0.2 µg/mL, an MIC [20] of 32 µg/mL and an ED50 ([21]; Staphylococcus aureus) of 3 to 10 mg/kg. The MIC ([22]; Escherichia coli, 205) was 4 µg/mL, the MIC [23] was 0.2 µg/mL and the MIC ([24]; Streptococcus pyogenes) was 0.2 µg/mL. For the same molecule, the MIC ([25]; Klebsiella pneumoniae, 327) was 4 µg/mL and the MIC ([26]; Pseudomonas aeruginosa) was greater than 128 µg/mL.

In the case of `Cc1nnc(CCCC2=C(C(=O)O)N3C(=O)[C@H](CO)[C@H]3S2)o1` [Verbindung B, (5R,65)-2-[3-(2-Methyl-1,3,4-oxadiazo1-5-yl)-propyl]-6-hydroxymethyl-2-penem-3-carbonsäure], the MIC ([1]; Serratia marcescens 344, in vitro, read-out: MIC) is reported as 16 µg/mL (≈ 49.2 µM), the MIC [2] is reported as 2 µg/mL (≈ 6.15 µM) and the MIC ([3]; Proteus morganii 1518, in vitro, read-out: MIC) is reported as 8 µg/mL (≈ 24.6 µM). It also gave an MIC ([4]; Proteus mirabilis 1219, in vitro, read-out: MIC) of 4 µg/mL (≈ 12.3 µM), an MIC ([5]; Proteus morganii 2359, in vitro, read-out: MIC) of 2 µg/mL (≈ 6.15 µM) and an MIC ([6]; Proteus mirabilis 774, in vitro, read-out: MIC) of 2 µg/mL (≈ 6.15 µM). The MIC ([7]; Neisseria meningitidis 1316, in vitro, read-out: MIC) was 0.05 µg/mL (≈ 0.154 µM), the MIC [8] was 1 µg/mL (≈ 3.07 µM) and the MIC [9] was 2 µg/mL (≈ 6.15 µM). It also gave an MIC ([10]; Haemophilus influenzae NCTC 4560, in vitro, read-out: MIC) of 2 µg/mL (≈ 6.15 µM), an MIC ([11]; Escherichia coli 16, in vitro, read-out: MIC) of 16 µg/mL (≈ 49.2 µM) and an MIC [12] of 4 µg/mL (≈ 12.3 µM). It also gave an MIC [13] of 16 µg/mL (≈ 49.2 µM), an MIC ([14]; Streptococcus pneumoniae III/84, in vitro, read-out: MIC) of 0.05 µg/mL (≈ 0.154 µM) and an MIC ([15]; Bacteroides fragilis L 01, in vitro, read-out: MIC) of 0.5 µg/mL (≈ 1.54 µM). For the same molecule, the MIC ([16]; Staphylococcus aureus 10 B, in vitro, read-out: MIC) was 0.2 µg/mL (≈ 0.615 µM), the MIC ([17]; Proteus rettgeri 856, in vitro, read-out: MIC) was 4 µg/mL (≈ 12.3 µM) and the MIC ([18]; Neisseria gonorrhoeae 1317-4, in vitro, read-out: MIC) was 0.01 µg/mL (≈ 0.0307 µM). For the same molecule, the MIC ([19]; Staphylococcus aureus 2999i+p+, in vitro, read-out: MIC) was 0.2 µg/mL (≈ 0.615 µM), the MIC ([20]; Streptococcus faecalis D 3, in vitro, read-out: MIC) was 32 µg/mL (≈ 98.4 µM) and the ED50 ([21]; mouse, systemic infection by Staphylococcus aureus lOB, subcutaneous application, read-out: ED50) was 0.3 to 30 mg/kg. For the same molecule, the MIC ([22]; Escherichia coli 205, in vitro, read-out: MIC) was 1 µg/mL (≈ 3.07 µM), the MIC [23] was 0.1 µg/mL (≈ 0.307 µM) and the MIC ([24]; Streptococcus pyogenes Aronson, in vitro, read-out: MIC) was 0.1 µg/mL (≈ 0.307 µM). The MIC ([25]; Klebsiella pneumoniae 327, in vitro, read-out: MIC) was 2 µg/mL (≈ 6.15 µM) and the MIC ([26]; Pseudomonas aeruginosa ATCC 12055, in vitro, read-out: MIC) was greater than 32 µg/mL.
